Marks after values point to notes of the source that are not given here. Where no end group is shown, it is not given here.
Assays:
Torulopsis glabrata = test: Growth inhibition on agar with spotted peptide; type: cell-based; design: key: “+” designates full growth inhibition; “+/−” designates partial inhibition; “−” signifies no inhibition; details: T. glabrata on agar, 10 μg peptide spotted
Procedure: (§1) The growth of the yeast Candida albicans, Torulopsis glabrata and meticillin-resistant Staphylococcus aureus (MRSA) was tested by growing them on agar on which 10 μg of each of the peptides according to the invention was spotted. […] “+” designates full growth inhibition, “+/−” designates partial inhibition and “−” signifies no inhibition.

Candida albicans = test: Growth inhibition on agar with spotted peptide; type: cell-based; design: key: “+” designates full growth inhibition; “+/−” designates partial inhibition; “−” signifies no inhibition; details: C. albicans on agar, 10 μg peptide spotted
Procedure: as §1

[1] = test system: meticillin-resistant Staphylococcus aureus (MRSA); test: Growth inhibition on agar with spotted peptide; type: cell-based; design: key: “+” designates full growth inhibition; “+/−” designates partial inhibition; “−” signifies no inhibition; details: 10 μg peptide spotted
Procedure: as §1

[2] = test system: Strentococcus sanguis (SB 179); test: Antibacterial activity against monocultures in vitro (viability counts); type: cell-based; details: Streptococcus sanguis, 0.5 h, 100 μg/ml
Procedure: (§2) Monocultures of the bacteria Streptococcus mutans (R9), Strentococcus sanguis (SB 179), Streptococcus salivarius (SS 196), Actinomyces naeslundii (WVU 627), Fusobacterium nucleatum (ATCC 10953), Prevotella intermedia ([…]) and Veillonella parvula (ATCC 17745) were cultured to a late log phase in BHI (Difco), washed three times in 10 mM potassium phosphate buffer (PPB) and diluted to a suspension of 10^6 CFU/ml. […] The control treatment was performed in 10 mM without peptide.

[3] = test system: Actinomyces naeslundii (WVU 627); test: as above; type: cell-based; details: 0.5 h, 100 μg/ml
Procedure: as §2

[4] = test system: Veillonella parvula (ATCC 17745); test: as above; type: cell-based; details: 0.5 h, 100 μg/ml
Procedure: as §2

[5] = test system: Fusobacterium nucleatum (ATCC 10953); test: as above; type: cell-based; details: 0.5 h, 100 μg/ml
Procedure: as §2

[6] = test system: Streptococcus mutans (R9); test: as above; type: cell-based; details: 0.5 h, 100 μg/ml
Procedure: as §2

[7] = test system: Streptococcus salivarius (SS 196); test: as above; type: cell-based; details: 0.5 h, 100 μg/ml
Procedure: as §2

[8] = test system: Prevotella intermedia (T588); test: as above; type: cell-based; details: 0.5 h, 100 μg/ml
Procedure: as §2

Streptococcus mutans = test: Inhibition of lactic acid production; type: cell-based; details: S. mutans; 1 hour in 10 mM PPB with glucose
Procedure: (§3) All peptides according to the invention were tested for their capacity to inhibit the lactic acid production of the bacteria Streptococcus sanguis, Streptococcus mutans, Streptococcus salivarius and Lactobacillus rhamnosus. The formation of lactic acid is a measure for the metabolic activity. For this purpose cultures of bacteria cells were incubated for 1 hour in 10 mM PPB with 0.5 glucose and different concentrations of the peptides. The formation of lactic acid was monitored by means of spectrophotometry.

Lactobacillus rhamnosus = test: Inhibition of lactic acid production; type: cell-based; details: L. rhamnosus; 1 hour in 10 mM PPB with glucose
Procedure: as §3

Streptococcus sanguis = test: Inhibition of lactic acid production; type: cell-based; details: S. sanguis; 1 hour in 10 mM PPB with glucose
Procedure: as §3

Streptococcus salivarius = test: Inhibition of lactic acid production; type: cell-based; details: S. salivarius; 1 hour in 10 mM PPB with glucose
Procedure: as §3

Candida pseudotropicalis = test: microbe, parasite or virus in culture; details: pH 7
Procedure: (§4) 5*10^6 cells of Candida pseudotropicalis, Candida albicans 10231, Cryptococcus neoformans, Candida krusei, Candida parapsilosis, Candida glabrata and Candida albicans 32354 and an ergosterol-deficient mutant thereof were incubated for one and a half hours at 37° C. in the presence of a dilution series of a peptide according to the invention or amphotericin B in 1 mM potassium phosphate buffer, pH 7.0. The viability was determined by plating out. Used as positive control was synthetic PGLa (“Protein beginning with Glycine and ending with Leucin-amide”, with the amino acid sequence […]-amide).

Candida parapsilosis = test: microbe, parasite or virus in culture; details: pH 7
Procedure: as §4

Cryptococcus neoformans = test: microbe, parasite or virus in culture; details: pH 7
Procedure: as §4

Candida albicans 10231 = test: microbe, parasite or virus in culture; details: 10231, pH 7
Procedure: as §4

Candida krusei = test: microbe, parasite or virus in culture; details: pH 7
Procedure: as §4

Candida glabrata = test: microbe, parasite or virus in culture; details: pH 7
Procedure: as §4

KRLFKELKFSLRKY-OH [peptide 3, KRLFKELKFSLRKY]
growth inhibition (Torulopsis glabrata): +
growth inhibition (Candida albicans): +
growth inhibition [1]: +/−
% reduction in viability counts [2]: 99.6 (0.30)* %
% reduction in viability counts [3]: >99.9* %
% reduction in viability counts [4]: >99.9* %
% reduction in viability counts [5]: 92.9 (3.00)* %
% reduction in viability counts [6]: >99.9* %
% reduction in viability counts [7]: >99.9* %
% reduction in viability counts [8]: −57.8 (77.9) %
inhibition of lactic acid production (Streptococcus mutans): + (“+” designates full inhibition at 4-20 μg/ml peptide)
inhibition of lactic acid production (Lactobacillus rhamnosus): + (“+” designates full inhibition at 4-20 μg/ml peptide)
inhibition of lactic acid production (Streptococcus sanguis): + (“+” designates full inhibition at 4-20 μg/ml peptide)
inhibition of lactic acid production (Streptococcus salivarius): + (“+” designates full inhibition at 4-20 μg/ml peptide)

SSSKEENRIIPGGI [negative control, SSSKEENRIIPGGI]
IC50 values (50% of the inoculum is killed) (Candida pseudotropicalis): >67 µg/mL
IC50 values (50% of the inoculum is killed) (Candida parapsilosis): >67 µg/mL
IC50 values (50% of the inoculum is killed) (Cryptococcus neoformans): >67 µg/mL
IC50 values (50% of the inoculum is killed) (Candida albicans 10231): >67 µg/mL
IC50 values (50% of the inoculum is killed) (Candida krusei): >67 µg/mL
IC50 values (50% of the inoculum is killed) (Candida glabrata): >67 µg/mL

C[C@H](NC(=O)[C@H](Cc1cnc[nH]1)NC(=O)[C@H](CO)NC(=O)[C@@H](N)CC(=O)O)C(=O)N[C@@H](CCCCN)C(=O)N[C@@H](CCCNC(=N)N)C(=O)N[C@@H](Cc1cnc[nH]1)C(=O)N[C@@H](Cc1cnc[nH]1)C(=O)NCC(=O)N[C@@H](Cc1ccc(O)cc1)C(=O)N[C@@H](CCCCN)C(=O)N[C@@H](CCCNC(=N)N)C(=O)N[C@@H](CCCCN)C(=O)N[C@@H](Cc1ccccc1)C(=O)N[C@@H](Cc1cnc[nH]1)C(=O)N[C@@H](CCC(=O)O)C(=O)N[C@@H](CCCCN)C(=O)N[C@@H](Cc1cnc[nH]1)C(=O)N[C@@H](Cc1cnc[nH]1)C(=O)N[C@@H](CO)C(=O)N[C@@H](Cc1cnc[nH]1)C(=O)N[C@@H](CCCNC(=N)N)C(=O)NCC(=O)N[C@@H](Cc1ccc(O)cc1)C(=O)O [histatin 5, reference compound]
growth inhibition (Torulopsis glabrata): −
growth inhibition (Candida albicans): −
growth inhibition [1]: −
% reduction in viability counts [2]: 69.5%
% reduction in viability counts [3]: −11.6%
% reduction in viability counts [4]: 26.9%
% reduction in viability counts [5]: 49.3%
% reduction in viability counts [6]: −49.5%
% reduction in viability counts [7]: 38.3%
inhibition of lactic acid production (Streptococcus mutans): − (“−” signifies no inhibition of lactic acid formation at >100 μg/ml peptide)
inhibition of lactic acid production (Lactobacillus rhamnosus): − (“−” signifies no inhibition of lactic acid formation at >100 μg/ml peptide)
inhibition of lactic acid production (Streptococcus sanguis): − (“−” signifies no inhibition of lactic acid formation at >100 μg/ml peptide)
inhibition of lactic acid production (Streptococcus salivarius): − (“−” signifies no inhibition of lactic acid formation at >100 μg/ml peptide)

From patent US6638531B1, “Antimicrobial peptides” (priority 1998, dated 2003)
